Source: patent US20230295118A1 (EnhancedBio Inc., priority 2022, published 2023)

What was measured:
Assay type in all cases: cell-based
CDK4 = biological target: T1, CDK4 (Homo sapiens, UniProt P11802); experiment: CDK4 degradation (DC50, Dmax)
T1 construct: endogenous in cells

CDK6 = biological target: T2, CDK6 (Homo sapiens, UniProt Q00534); experiment: CDK6 degradation (DC50, Dmax)
T2 construct: endogenous in cells

[1] = test system: mantle cell lymphoma cell (Mino or JeKo-1); experiment: Antiproliferative effect, MTS cell viability assay; details: 72 h, mantle cell lymphoma cell (Mino or JeKo-1), MTS assay, read-out: IC50 (anti-proliferation)
In short: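 MTS read-out (formazan absorbance at 490 nm) after 72 h exposure of Mino cells to 0–1 μM compound (0.0001, 0.001, 0.01, 0.1, 1 μM). Palbociclib and abemaciclib served as positive controls.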

T2 sequence (Q00534 whole entry): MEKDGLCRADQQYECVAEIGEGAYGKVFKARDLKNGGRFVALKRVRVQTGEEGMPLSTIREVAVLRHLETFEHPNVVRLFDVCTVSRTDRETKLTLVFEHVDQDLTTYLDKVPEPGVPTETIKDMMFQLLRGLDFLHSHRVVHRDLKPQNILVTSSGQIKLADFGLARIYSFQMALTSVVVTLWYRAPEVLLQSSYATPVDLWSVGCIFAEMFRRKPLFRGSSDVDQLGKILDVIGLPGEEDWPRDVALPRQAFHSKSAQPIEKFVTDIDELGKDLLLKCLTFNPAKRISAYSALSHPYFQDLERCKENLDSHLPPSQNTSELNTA
T1 sequence (P11802 whole entry): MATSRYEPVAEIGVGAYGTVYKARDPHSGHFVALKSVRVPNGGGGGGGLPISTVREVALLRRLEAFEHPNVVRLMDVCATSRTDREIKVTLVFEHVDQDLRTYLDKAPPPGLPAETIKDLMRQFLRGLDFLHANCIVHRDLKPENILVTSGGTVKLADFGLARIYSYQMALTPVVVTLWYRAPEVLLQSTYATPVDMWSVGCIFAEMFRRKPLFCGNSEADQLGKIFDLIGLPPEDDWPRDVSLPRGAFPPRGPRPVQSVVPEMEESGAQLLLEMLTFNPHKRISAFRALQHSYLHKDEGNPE

Row | SMILES | DC50 (CDK4) | Dmax (CDK4) | DC50 (CDK6) | Dmax (CDK6) | IC50 [1]
1 | Cc1nc2c(F)cc(-c3nc(Nc4ccc(CN5CCN(CC6CN(c7ccc(N8CCC(=O)NC8=O)cc7)C6)CC5)cn4)ncc3F)cc2n1C(C)C [Compound 106, 1-(4-(3-((4-((6-((5-fluoro-4-(4-fluoro-1-isopropyl-2-methyl-1H-benzo[d]imidazol-6-yl)pyrimidin-2-yl)amino)pyridin-3-yl)methyl)piperazin-1-yl)methyl)azetidin-1-yl)phenyl) dihydropyrimidine-2,4(1H,3H)-dione] | < 50 nM | > 80% | < 50 nM | > 80% | < 50 nM
2 | Cc1nc2c(F)cc(-c3nc(Nc4ccc(CN5CCN(CCCNc6ccc(N7CCC(=O)NC7=O)cc6)CC5)cn4)ncc3F)cc2n1C(C)C [Compound 107, 1-(4-((3-(4-((6-((5-fluoro-4-(4-fluoro-1-isopropyl-2-methyl-1H-benzo[d]imidazol-6-yl)pyrimidin-2-yl)amino)pyridin-3-yl)methyl)piperazin-1-yl)propyl)amino)phenyl)dihydro-pyrimidine-2,4 (1H,3H)-dione] | < 50 nM | > 80% | < 50 nM | > 80% | < 50 nM
3 | Cc1nc2c(F)cc(-c3nc(Nc4ccc(CN5CCN(CC6CCN(c7ccc(N8CCC(=O)NC8=O)cc7)CC6)CC5)cn4)ncc3F)cc2n1C(C)C [Compound 108, 1-(4-(4-((4-((6-((5-fluoro-4-(4-fluoro-1-isopropyl-2-methyl-1H-benzo[d]imidazol-6-yl)pyrimidin-2-yl)amino)pyridin-3-yl)methyl)piperazin-1-yl)methyl)piperidin-1-yl)phenyl) dihydropyrimidine-2,4(1H,3H)-dione] | < 50 nM | > 80% | < 50 nM | > 80% | < 50 nM
4 | Cc1nc2c(F)cc(-c3nc(Nc4ccc(CN5CCN(C6CCN(c7ccc(N8CCC(=O)NC8=O)cc7)CC6)CC5)cn4)ncc3F)cc2n1C(C)C [Compound 109, 1-(4-(4-(4-((6-((5-fluoro-4-(4-fluoro-1-isopropyl-2-methyl-1H-benzo[d]imidazol-6-yl)pyrimidin-2-yl)amino)pyridin-3-yl)methyl)piperazin-1-yl)piperidin-1-yl)phenyl) dihydropyrimidine-2,4(1H,3H)-dione] | < 50 nM | > 80% | < 50 nM | > 80% | < 50 nM
5 | Cc1nc2c(F)cc(-c3nc(Nc4ccc(CN5CCN(CC6CCCN(c7ccc(N8CCC(=O)NC8=O)cc7)C6)CC5)cn4)ncc3F)cc2n1C(C)C (centres unmarked) [Compound 110, 1-(4-(3-((4-((6-((5-fluoro-4-(4-fluoro-1-isopropyl-2-methyl-1H-benzo[d]imidazol-6-yl)pyrimidin-2-yl)amino)pyridin-3-yl)methyl)piperazin-1-yl)methyl)piperidin-1-yl)phenyl) dihydropyrimidine-2,4(1H,3H)-dione] | < 50 nM | > 80% | < 50 nM | > 80% | < 50 nM
6 | CC(=O)c1c(C)c2cnc(Nc3ccc(N4CCN(CC5CN(c6ccc(N7CCC(=O)NC7=O)cc6)C5)CC4)cn3)nc2n(C2CCCC2)c1=O [Compound 111, 1-(4-(3-((4-(6-((6-acetyl-8-cyclopentyl-5-methyl-7-oxo-7,8-dihydropyrido[2,3-d]pyrimidin-2-yl)amino)pyridin-3-yl)piperazin-1-yl)methyl)azetidin-1-yl)phenyl) dihydropyrimidine-2,4(1H,3H)-dione] | < 50 nM | > 80% | < 50 nM | > 80% | < 50 nM
7 | CC(=O)c1c(C)c2cnc(Nc3ccc(N4CCN(CC5CCN(c6ccc(N7CCC(=O)NC7=O)cc6)CC5)CC4)cn3)nc2n(C2CCCC2)c1=O [Compound 112, 1-(4-(4-((4-(6-((6-acetyl-8-cyclopentyl-5-methyl-7-oxo-7,8-dihydropyrido[2,3-d]pyrimidin-2-yl)amino)pyridin-3-yl)piperazin-1-yl)methyl)piperidin-1-yl)phenyl) dihydropyrimidine-2,4(1H,3H)-dione] | < 50 nM | > 80% | 50 to 200 nM | > 80% | < 50 nM
8 | CC(=O)c1c(C)c2cnc(Nc3ccc(N4CCN(C5CCN(c6ccc(N7CCC(=O)NC7=O)cc6)CC5)CC4)cn3)nc2n(C2CCCC2)c1=O [Compound 113, 1-(4-(4-(4-(6-((6-acetyl-8-cyclopentyl-5-methyl-7-oxo-7,8-dibydropyrido[2,3-d]pyrimidin-2-yl)amino)pyridin-3-yl)piperazin-1-yl)piperidin-1-yi)phenyl) dihydropyrimidine-2,4(1H,3H)-dione] | 50 to 200 nM | > 80% | < 50 nM | > 80% | < 50 nM
9 | CC(=O)c1c(C)c2cnc(Nc3ccc(N4CCN(C(=O)C5CCN(c6ccc7c(c6)C(=O)N(C6CCC(=O)NC6=O)C7=O)CC5)CC4)cn3)nc2n(C2CCCC2)c1=O (centres unmarked) [Compound 114, 5-(4-(4-(6-((6-acetyl-8-cyclopentyl-5-methyl-7-oxo-7,8-dihydropyrido[2,3-d]pyrimidin-2-yl)amino)pyridin-3-yl)piperazine-1-carbonyl)piperidin-1-yl)-2-(2,6-dioxopiperidin-3-yl) isoindoline-1,3-dione] | 50 to 200 nM | > 80% | 50 to 200 nM | > 80% | < 50 nM
10 | CC(=O)c1c(C)c2cnc(Nc3ccc(N4CCN(C(=O)C5CCN(c6ccc7c(c6)CN(C6CCC(=O)NC6=O)C7=O)CC5)CC4)cn3)nc2n(C2CCCC2)c1=O (centres unmarked) [Compound 115, 3-(5-(4-(4-(6-((6-acetyl-8-cyclopentyl-5-methyl-7-oxo-7,8-dihydropyrido[2,3-d]pyrimidin-2-yl)amino)pyridin-3-yl)piperazine-1-carbonyl)piperidin-1-yl)-1-oxoisoindolin-2-yl)piperidine-2,6-dione] | 50 to 200 nM | > 60% | 50 to 200 nM | > 60% | < 50 nM
11 | CC(=O)c1c(C)c2cnc(Nc3ccc(N4CCN(C(=O)C5CCN(c6ccc(C(=O)NC7CCC(=O)NC7=O)cc6)CC5)CC4)cn3)nc2n(C2CCCC2)c1=O (centres unmarked) [Compound 116, 4-(4-(4-(6-((6-acetyl-8-cyclopentyl-5-methyl-7-oxo-7,8-dihydropyrido[2,3-d]pyrimidin-2-yl)amino)pyridin-3-yl)piperazine-1-carbonyl)piperidin-1-yl)-N-(2,6-dioxopiperidin-3-yl)benzamide] | 50 to 200 nM | > 80% | 50 to 200 nM | > 80% | 50 to 200 nM
12 | CC(=O)c1c(C)c2cnc(Nc3ccc(N4CCN(C(=O)C5CCN(c6ccc(NC7CCC(=O)NC7=O)cc6)CC5)CC4)cn3)nc2n(C2CCCC2)c1=O (centres unmarked) [Compound 117, 3-((4-(4-(4-(6-((6-acetyl-8-cyclopentyl-5-methyl-7-oxo-7,8-dihydropyrido[2,3-d]pyrimidin-2-yl)amino)pyridin-3-yl)piperazine-1-carbonyl)piperidin-1-yl)phenyl)amino) piperidine-2,6-dione] | < 50 nM | > 80% | 50 to 200 nM | > 60% | < 50 nM
13 | CC(=O)c1c(C)c2cnc(Nc3ccc(N4CCN(CC5CN(c6ccc7c(c6)CN(C6CCC(=O)NC6=O)C7=O)C5)CC4)cn3)nc2n(C2CCCC2)c1=O (centres unmarked) [Compound 118, 3-(5-(3-((4-(6-((6-acetyl-8-cyclopentyl-5-methyl-7-oxo-7,8-dihydropyrido[2,3-d]pyrimidin-2-yl)amino)pyridin-3-yl)piperazin-1-yl)methyl)azetidio-1-yl)-1-oxoisoindolin-2-yl)piperidine-2,6-dione] | < 50 nM | > 80% | < 50 nM | > 80% | < 50 nM
14 | CC(=O)c1c(C)c2cnc(Nc3ccc(N4CCN(CC5CN(c6ccc(C(=O)NC7CCC(=O)NC7=O)cc6)C5)CC4)cn3)nc2n(C2CCCC2)c1=O (centres unmarked) [Compound 119, 4-(3-((4-(6-((6-acetyl-8-cyclopentyl-5-methyl-7-oxo-7,8-dihydropyrido[2,3-d]pyrimidin-2-yl)amino)pyridin-3-yl)piperazin-1-yl)methyl)azetidin-1-yl)-N-(2,6-dioxopiperidin-3-yl)benzamide] | 50 to 200 nM | > 80% | 50 to 200 nM | > 80% | < 50 nM
15 | CC(=O)c1c(C)c2cnc(Nc3ccc(N4CCN(CC5CN(c6ccc(NC7CCC(=O)NC7=O)cc6)C5)CC4)cn3)nc2n(C2CCCC2)c1=O (centres unmarked) [Compound 120, 3-((4-(3-((4-(6-((6-acetyl-8-cyclopentyl-5-methyl-7-oxo-7,8-dihydropyrido[2,3-d]pyrimidin-2-yl)amino)pyridin-3-yl)piperazin-1-yl)methyl)azetidin-1-yl)phenyl)amino) piperidine-2,6-dione] | < 50 nM | > 80% | 50 to 200 nM | > 80% | < 50 nM
16 | CC(=O)c1c(C)c2cnc(Nc3ccc(N4CCN(C(=O)C5CN(c6ccc7c(c6)C(=O)N(C6CCC(=O)NC6=O)C7=O)C5)CC4)cn3)nc2n(C2CCCC2)c1=O (centres unmarked) [Compound 121, 5-(3-(4-(6-((6-acetyl-8-cyclopentyl-5-methyl-7-oxo-7,8-dihydropyrido[2,3-d]pyrimidin-2-yl)amino)pyridin-3-yl)piperazine-1-carbonyl)azetidin-1-yl)-2-(2,6-dioxopiperidin-3-yl)isoindoline-1,3-dione] | < 50 nM | > 80% | < 50 nM | > 80% | < 50 nM
